Test results as given in patent publication US7862995B2, “Methods and materials for predicting responsiveness to treatment with dual tyrosine kinase inhibitor” (Targeted Molecular Diagnostics, priority 2004, dated 2011).
“Also recorded” adds a separate entry of the source.

Legend:
[1] = test system: pAkt, pErk1 and pErk2 in MCF-7+HER2 cells; test: Western blot of MCF-7+HER2 cells for pErk1/Erk2/pAkt; type: cell-based
BT474 breast tumor cells = test: Cell death in estrogen-stimulated BT474 cells, methylene blue staining; type: cell-based, human; conditions: 1 μM estrogen 24 hr, 5 μM GW2974 90 min, 10 μM tamoxifen 72 hr
Description: Exponentially growing BT474 cells were treated with 1 μM estrogen for 24 hr. After 24 hr the cells were either untreated or treated with 5 μM small molecule dual inhibitor of EGFR/erbB2 (Sigma, GW2974) for 90 min. After 90 min, the cells were either untreated or treated with 10 μM tamoxifen for 72 hr. Cells were then washed with 1×PBS, stained with methylene blue (1% methylene blue in 50% methanol), rinsed with water, and dried overnight.

[2] = test system: AU-565 breast cancer cells; test: Viability of AU-565 and Bcl-2-transfected AU-565 cells after GW2974 treatment; type: cell-based
Excerpt: Au-565 breast cancer cells were obtained from the American Tissue Culture Collection, (deposit # CRL-2351) (Manassas, Va.) and were transfected with a Bcl-2 cDNA to express high levels of Bcl-2. Methods of transfecting cells are well known in the art and any known methods may be used in this example. Transfected Au-565 cells were then exposed to GW2974 (Sigma-Aldrich, St. Louis, Mo.), a dual EGFR/HER2 tyrosine kinase inhibitor.

ER in MCF-7(HER2) cells = test: ER localization by immunofluorescence in MCF-7(HER2) cells; type: cell-based; conditions: 1 mM GW2974 for 4 days
Excerpt: Nuclei are stained with DAPI and ER is detected by an immunofluorescent antibody

[3] = test system: breast, gastric, and head/neck carcinoma cell lines compared to normal human foreskin fibroblasts (HFF); conditions: cited from earlier work
[4] = test system: ER (and PR) expression in breast cancer cells; test: ER (and PR) expression in breast cancer cells; type: cell-based
[5] = test system: invasive breast carcinoma; test: TUNEL staining of PCD in patient tumor samples; type: in vivo, human
Description: All TUNEL solutions and staining reagents used in the present invention were purchased from Roche. Paraffin-embedded tissue clinical samples were dewaxed and rehydrated by heating at 60° C. followed by washing in xylene and rehydration through a graded series of washes with ethanol and double distilled water. Samples were incubated for 15-30 min at 21-37° C. with Proteinase K. Slides were rinsed twice with PBS. The area around the sample was dried and 50 μl of TUNEL reaction mixture was added to each slide. A coverslip was added to each slide and incubated for 60 min at 37° C. in a humidified chamber in the dark. The slides were rinsed three times with PBS. The TUNEL signal was converted by first drying the area around the sample and then adding 50 μl of Converter-POD reagent. The slides were incubated in a humidified chamber for 30 min at 37° C. and then rinsed three times in PBS. 100 μl of DAB Substrate was added to each slide and incubated for 10 min at 15-25° C. The slides were then rinsed three times with PBS. Slides were mounted under glass coverslips and TUNEL staining was analyzed under a light microscope.

[6] = Clinical response of a subject treated with a small molecule dual inhibitor of EGFR/erbB2; type: in vivo, human; conditions: one subject
FOXO3 = test: ELISA gel for FOXO3; conditions: following treatment
[7] = test system: ER in breast cancer tissues; test: IHC of ER in breast cancer tissues after treatment; type: in vivo
[8] = test system: forkhead transcription factor 3 (FOXO3A) in AU-565 breast cancer cells; test: FOXO3A staining of AU-565 breast cancer cells; type: cell-based

CN(C)c1cc2c(Nc3ccc4c(cnn4Cc4ccccc4)c3)ncnc2cn1 [GW2974]
effectiveness in cells pre-treated with estrogen ([1]; MCF-7+HER2 cells pre-treated with estrogen, then GW2974): not effective
pAkt expression ([1]; MCF-7+HER2 cells treated with GW2974): not expressed; also recorded: greatly reduced
expression of pErk1 and pErk2 ([1]; MCF-7+HER2 cells treated with GW2974, relative to baseline control (actin)): decreased
cell death (BT474 breast tumor cells): increases cell death in the presence of tamoxifen
viable cells ([2]; AU-565/Bcl-2 cells (overexpressing Bcl-2) treated by GW2974): approximately 50%
viable cells ([2]; AU-565 cells treated by GW2974): ~20%
higher rate of cell survival in cells with high Bcl-2 expression ([2]; following treatment with GW2974): approximately 30%
ER localization (ER in MCF-7(HER2) cells): accumulation of the ER in the cellular nucleus
selectivity in inhibiting cell growth [3]: greater than 75 fold
ER (and PR) expression [4]: upregulates ER (and PR) expression

CS(=O)(=O)CCNCc1ccc(-c2ccc3ncnc(Nc4ccc(OCc5cccc(F)c5)c(Cl)c4)c3c2)o1 [lapatinib]
response of TUNEL-positive patient to treatment ([5]; patient with invasive breast carcinoma (IBC) positive for TUNEL staining): responded well
levels of PCD by TUNEL staining ([5]; patient with invasive breast carcinoma, 21 days after treatment): significantly increased levels of PCD
clinical response [6]: complete response
duration of response / disease free state ([6]; following treatment): at least 20 months
FOXO3 expression (FOXO3): upregulation of FOXO3
ER localization [7]: change in ER localization
FOXO3A expression [8]: upregulated; also recorded: upregulates FOXO3A
